Like-named read-outs stand apart in the source and are kept apart here.
Columns and labels:
[1] = system: Freund's complete adjuvant-induced hind paw inflammation in mice; experiment: Freund's complete adjuvant-induced hind paw inflammation in mice (Example 4); type: in vivo, mice (BALB/c); details: day 7, versus mice without lactulose
Description: The following experiment was performed to test the effects of Lactulose combined with Celecoxib or Ibuprofen on Freund's complete adjuvant-induced hind paw inflammation in mice, with the results shown in FIGS. 12-15.
For induction of hindpaw inflammation, mice (BALB/c; 8 w old male n=6/group) received i.pl. injection of 25 μl of complete Freund's adjuvant (CFA, diluted 1:1 with PBS, 2 mg/ml; Mycobacterium tuberculosis; Difco Laboratories, Detroit, Mich.). Lactulose (10% water) or control water alone was administered once in a day for 7 days (500 μl/day) by oral gavage using a 20-G bulb-tipped gastric gavage needle (P.O.). Celecoxib (Toronto Research Chemicals) and Ibuprofen (Enzo Life Sciences) dissolved in PBS was applied to mice once a day via intra-peritoneal (i.p.) injection (10 mg/kg/day, respectively) for 7 days. The thickness of the foot pad was measured using a digital microcaliper as mice were sacrificed on 7 day. Surgically removed hind paw tissue was homogenized in EIA-Buffer (Cayman) and subjected to mouse NGF ELISA (Millipore), PGE2 EIA (Cayman), or TNF-α ELISA (R&D systems).

[2] = system: mouse foot pad inflammation induced by Freund's complete adjuvant (FCA); experiment: Freund's complete adjuvant induced foot pad inflammation in mice (Example 1); type: in vivo
Description: Mice were placed in the following administration groups, and administration occurred daily:
1) Control (no treatment) (n=4)
2) Placebo (PBS, i.p.) inoculation—(i.e. CFA only) (n=4)
3) H2 enriched PBS inoculation (i.e. CFA+H2) (n=4)
4) Lactulose inoculation at 0.5 mL/mouse (i.e. CFA+Lact) (n=4)
5) LYRICA® (i.e. CFA+Lyr) (n=5)
6) LYRICA®+H2 enriched PBS (i.e. CFA+Lyr+H2) (n=5)
7) LYRICA®+Lactulose in PBS (i.e. CFA+Lact+H2) (n=4)
CFA was injected into the mice in groups 2 through 7 above. Inflammation was induced in the mice by injection of Freund's complete adjuvant (FCA), 25 μL/foot, on day 0 as shown in FIG. 1A. […] These measurements included thickness of foot pad (level of inflammation), amount of H2 in abdominal cavity, amount of nerve growth factor (NGF) (pain marker) in foot pad, amount of Substance P (pain marker) in foot pad, and amount of IL-1β in foot pad (level of inflammation).

[3] = H2 concentration in ascites fluid after ingestion (Example 2); type: in vivo, mouse; details: for H2 concentration in ascites fluid after ingestion of sugar solution: mouse abdominal cavity, ranking among sugars tested
Description: Lactose, glucose, galactose, fructose, mannitol, inulin, Splenda® (McNeil Nutritionals (sucralose)), Equal® (Merisant (aspartame, dextrose, and maltodextrin)), and lactulose were tested along with a control.
After 30 minutes, H2-enriched water provided approximately 40 μM H2 concentration but dropped off to approximately 15 μM after 4 hours. At 4 hours, lactulose provided over 20 μM H2 concentration.

[4] = system: tonic extensor seizures in mice; details: cited from earlier work; for Effect # Protected/# Tested / Ataxia # Ataxia/# Tested: mice, intravenous, 120 min after dose; for Effect # Protected/# Tested: electroshock
[5] = system: GAD; details: cited from earlier work
[6] = system: mouse macrophage cell line (RAW264.7); experiment: TNF-α production from LPS-stimulated mouse macrophages (Example 3); type: cell-based; details: LPS-stimulated RAW264.7, 24 hours, ELISA; drug 10-1000 nM, with or without H2
Description: The following is an in vitro experiment to test the effects of hydrogen on the Celecoxib- or Ibuprofen-mediated anti-inflammatory activities, and the results are shown in FIGS. 10 and 11.
The mouse macrophage cell line (RAW264.7) was seeded at a density of 1.0×10^5 cells/well in 96-well culture plates in Minimum Essential Medium Alpha ( ? -MEM, Sigma) supplemented with penicillin G solution (100 U/ml, GIBCO; Invitrogen, Buffalo, N.Y.), streptomycin ([…], GIBCO; Invitrogen), and gentamicin (50 ? g/ml, GIBCO; Invitrogen) containing 10% FBS in the presence or absence of H2 (300 nM/ml) for 30 min. Then the cells were exposed to LPS (0.1 mg/ml, Invivogen, San Diego, Calif.), with or without a variety of concentrations of Celecoxib or Ibuprofen (10-1000 nM). After culture of the RAW264.7 cells for 24 hours in a CO2 incubator (37° C.), the culture supernatant was harvested and subjected to TNF-α ELISA (R&D Systems).

Compound: OC[C@H]1O[C@@H](O[C@@H]2[C@@H](CO)OC(O)(CO)[C@H]2O)[C@H](O)[C@@H](O)[C@H]1O (mixture of isomers) [Lactulose, lactulose]
- foot pad swelling ([1]; lactulose 10% P.O. 500 μl/day, drug 10 mg/kg/day i.p.): reduced
- NGF in inflamed foot pads [1]: reduced
- amount of PGE2 in inflamed foot pads [1]: reduced
- amount of TNF-α in inflamed foot pads [1]: greatly reduced
- H2 concentration in the abdomen ([2]; day 8, CFA-injected mice): highest
- H2 concentration in ascites fluid ([3]; after 4 hours): over 20 μM
- H2 concentration in ascites fluid after ingestion of sugar solution [3]: highest concentration of H2 in ascites fluid

Compound: CC(CN)CC(=O)O (racemic) [(R,S)—CH3]
- Effect # Protected/# Tested ([4]; 10 mg/kg): 0/5
- Ataxia # Ataxia/# Tested ([4]; 10 mg/kg): 0/5
- Effect # Protected/# Tested ([4]; 30 mg/kg): 4/5
- Ataxia # Ataxia/# Tested ([4]; 30 mg/kg): 0/5
- Effect # Protected/# Tested ([4]; 100 mg/kg): 3/5
- Ataxia # Ataxia/# Tested ([4]; 100 mg/kg): 0/5

Compound: CC(C)CC(CN)CC(=O)O (racemic) [(R,S)—i-C4H9, H, 4-amino-3-(2-methylpropyl)butanoic acid]
- potency when tested in vivo ([4]; compared with the other analogs): more potent than the other analogs
- activating GAD in vitro ([5]; compared with the other analogs tested): least effective one of the analogs tested

Compound: CC(N)CCC(=O)O (racemic) [H(R,S)]
- Activation of GAD by GABA analogs expressed in % ([5]; 0.25 mM): 104%
- Activation of GAD by GABA analogs expressed in % ([5]; 1.0 mM): 111%
- Activation of GAD by GABA analogs expressed in % ([5]; 2.5 mM): 140%

Compound: CC(C)Cc1ccc(C(C)C(=O)O)cc1 (racemic) [ibuprofen, (RS)-2-(4-(2-methylpropyl)phenyl)propanoic acid]
- TNF-α production [6]: TNF-α suppression

Compound: CC(C)(CN)CC(=O)O [(CH3)2]
- Effect # Protected/# Tested ([4]; 30 mg/kg): 4/5
- Ataxia # Ataxia/# Tested ([4]; 30 mg/kg): 0/5
- Effect # Protected/# Tested ([4]; 100 mg/kg): 4/5
- Ataxia # Ataxia/# Tested ([4]; 100 mg/kg): 0/5

Compound: NCC1(CC(=O)O)CCCCC1 [GABAPENTIN, gabapentin]
- Activation of GAD by GABA analogs expressed in % ([5]; 0.25 mM): 105%
- Activation of GAD by GABA analogs expressed in % ([5]; 1.0 mM): 145%
- Activation of GAD by GABA analogs expressed in % ([5]; 2.5 mM): 178%

Compound: C[C@@H](N)CCC(=O)O [H(R)]
- Activation of GAD by GABA analogs expressed in % ([5]; 0.25 mM): 108%
- Activation of GAD by GABA analogs expressed in % ([5]; 1.0 mM): 125%
- Activation of GAD by GABA analogs expressed in % ([5]; 2.5 mM): 173%

Compound: C[C@H](N)CCC(=O)O [H(S)]
- Activation of GAD by GABA analogs expressed in % ([5]; 0.25 mM): 100%
- Activation of GAD by GABA analogs expressed in % ([5]; 1.0 mM): 100%
- Activation of GAD by GABA analogs expressed in % ([5]; 2.5 mM): 100%

Compound: CC(C)C[C@H](CN)CC(=O)O [LYRICA®, (S)-(+)-4-amino-3-(2-methylpropyl)butanoic acid]
- IL-1β in tissue (level of inflammation) ([2]; CFA-injected mice): slightly reduced levels of inflammation compared to placebo group 2
- Substance P (pain marker) in tissue ([2]; CFA-injected mice): reduction in the marker compared to the placebo group 2

Compound: CCCC(CCC)C(=O)[O-].[Na+] [Sodium Valproate]
- Activation of GAD by GABA analogs expressed in % ([5]; 0.05 mM): 105%
- Activation of GAD by GABA analogs expressed in % ([5]; 0.1 mM): 115%
- Activation of GAD by GABA analogs expressed in % ([5]; 0.25 mM): 119%
- Activation of GAD by glutamate analogs expressed in % ([5]; 0.25 mM): 119%
- Activation of GAD by GABA analogs expressed in % ([5]; 0.5 mM): 124%
- Activation of GAD by GABA analogs expressed in % ([5]; 1.0 mM): 138%
- Activation of GAD by glutamate analogs expressed in % ([5]; 1.0 mM): 138%
- Activation of GAD by GABA analogs expressed in % ([5]; 2.5 mM): 207%
- Activation of GAD by glutamate analogs expressed in % ([5]; 2.5 mM): 207%

Compound: CC(C)CC(CN)CC(=O)O (stereo not drawn) [i-C4H9, 4-amino-3-(2-methylpropyl)butanoic acid]
- Effect # Protected/# Tested ([4]; 0.3 mg/kg): 1/10
- Effect # Protected/# Tested ([4]; 0.8 mg/kg): 3/10
- Effect # Protected/# Tested ([4]; 2.0 mg/kg): 5/10
- Effect # Protected/# Tested ([4]; 5.5 mg/kg): 7/10

Compound: CC(C)(C)CC(CN)CC(=O)O (stereo not drawn) [neo-C5H11]
- Effect # Protected/# Tested ([4]; 10 mg/kg): 2/10
- Ataxia # Ataxia/# Tested ([4]; 10 mg/kg): 0/10
- Effect # Protected/# Tested ([4]; 30 mg/kg): 4/10
- Ataxia # Ataxia/# Tested ([4]; 30 mg/kg): 0/10
- Effect # Protected/# Tested ([4]; 100 mg/kg): 4/10
- Ataxia # Ataxia/# Tested ([4]; 100 mg/kg): 0/10

Compound: CCC(C)C(CN)CC(=O)O (stereo not drawn) [s-C4H9]
- Effect # Protected/# Tested ([4]; 3 mg/kg): 2/10
- Ataxia # Ataxia/# Tested ([4]; 3 mg/kg): 0/10
- Effect # Protected/# Tested ([4]; 10 mg/kg): 3/10
- Ataxia # Ataxia/# Tested ([4]; 10 mg/kg): 0/10
- Effect # Protected/# Tested ([4]; 30 mg/kg): 2/10
- Ataxia # Ataxia/# Tested ([4]; 30 mg/kg): 0/10

Compound: CC(C)(C)C(CN)CC(=O)O (stereo not drawn) [t-C4H9]
- Effect # Protected/# Tested ([4]; 10 mg/kg): 2/10
- Ataxia # Ataxia/# Tested ([4]; 10 mg/kg): 0/10
- Effect # Protected/# Tested ([4]; 30 mg/kg): 2/10
- Ataxia # Ataxia/# Tested ([4]; 30 mg/kg): 0/10
- Effect # Protected/# Tested ([4]; 100 mg/kg): 5/10
- Ataxia # Ataxia/# Tested ([4]; 100 mg/kg): 0/10

Compound: inulin
- H2 concentration in ascites fluid after ingestion of sugar solution [3]: next highest concentration
